# pIC50: −log10 of the molar value. Where two headings read alike, the source gives them in different places.
# What was measured:
# HCC827 cells = test: HCC827 cell viability, MTS assay; type: cell-based; settings: Homo sapiens, 96-h incubation, read-out: IC50 (concentration which causes 50% of the cell death)
# Description: HCC827 cell viability was examined by the MTS assay (Promega, Madison, Wis., USA). 1000 HCC827 cells in 100 μl RPMI1640 with 10% FBS medium were seeded in each well of a 96-well plate. After 96-h incubation with a test compound, the cells were further incubated with 20 μl of a MTS/PMS mixture (MTS/PMS ratio: 20:1) in each well of the 96-well plate for 2 h at 37° C. in a humidified incubator with 5% CO2 to allow viable cells to convert the tetrazolium salt (MTS) into formazan. The amount/concentration of formazan, which indicates the number of live cells, was determined by measuring its absorbance at 490 nm using a PerkinElmer Victor2 plate reader (PerkinElmer, Shelton, Conn., USA).
# GST-EGFR-KD^WT = biological target: T1, GST-EGFR-KD^WT (Homo sapiens, UniProt P00533); test: EGFR kinase assay (Kinase-Glo); type: biochemical; settings: 5 μM ATP, read-out: IC50 (concentration at which activity of 50% of EGFR is inhibited)
# T1 construct: 50 ng GST-EGFR-KD^WT proteins; made in house
# Description: Following incubation, 50 μl Kinase-Glo Plus Reagent (Promega) was added and the mixture was further incubated at 25° C. for 20 min.
# GST-EGFR-KD^L858R/T790M = biological target: T2, GST-EGFR-KD^L858R/T790M (Homo sapiens, UniProt P00533, L858R/T790M); test: Double mutant EGFR kinase assay (Kinase-Glo); type: biochemical; settings: 1 μM ATP, read-out: IC50 (concentration at which activity of 50% of mutant EGFR is inhibited)
# T2 construct: residues from 696 to 1022 and with L858R/T790M; made in house; host or cells: Sf9 insect cells (baculovirus)
# T2 sequence (P00533 696-1022 T790M/L858R): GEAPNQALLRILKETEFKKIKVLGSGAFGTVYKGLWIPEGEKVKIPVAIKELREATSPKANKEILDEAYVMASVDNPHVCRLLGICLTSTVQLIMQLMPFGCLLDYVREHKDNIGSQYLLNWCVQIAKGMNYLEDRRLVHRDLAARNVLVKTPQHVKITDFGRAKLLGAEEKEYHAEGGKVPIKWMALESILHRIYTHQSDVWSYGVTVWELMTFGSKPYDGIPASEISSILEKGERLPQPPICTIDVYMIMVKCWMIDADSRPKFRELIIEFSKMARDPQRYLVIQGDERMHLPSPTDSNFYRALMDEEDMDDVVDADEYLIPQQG
# Description: Following incubation, 50 μL Kinase-Glo Plus Reagent (Promega) was added and the mixture was incubated at 25° C. for 20 min.
# T1 sequence (P00533 712-979 limits assumed): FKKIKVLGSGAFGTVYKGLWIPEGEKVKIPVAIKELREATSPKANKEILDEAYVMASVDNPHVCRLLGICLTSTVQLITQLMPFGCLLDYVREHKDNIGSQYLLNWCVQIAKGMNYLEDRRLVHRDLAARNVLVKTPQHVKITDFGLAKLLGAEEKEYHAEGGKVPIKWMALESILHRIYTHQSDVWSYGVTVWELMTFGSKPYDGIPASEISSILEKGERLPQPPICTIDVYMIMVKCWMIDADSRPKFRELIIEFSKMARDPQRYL
SMILES,pIC50 (HCC827 cells),pIC50 (GST-EGFR-KD^WT; range given in mixed units),pIC50 (GST-EGFR-KD^L858R/T790M),pIC50 (GST-EGFR-KD^WT)
"OC[C@@H](Nc1ncnc2sc3c(c12)CCCC3)c1ccccc1 [Compound 1, S-2-phenyl-2-(5,6,7,8-tetrahydro-benzo[4,5]thieno[2,3-d]pyrimidin-4-ylamino)-ethanol]",6.52 to 7.00,6.05 to 7.00,–,–
OC[C@@H](Nc1ncnc2sc3c(c12)CCC3)c1ccccc1 [Compound 3],6.00 to 6.52,–,–,–
"Cc1sc2ncnc(N[C@H](CO)c3ccccc3)c2c1C [Compound 4, (S)-2-(5,6-dimethylthieno[2,3-d]pyrimidin-4-ylamino)-2-phenylethanol]",6.00 to 6.52,–,–,–
OC[C@@H](Nc1ncnc2sc(-c3ccccc3)cc12)c1ccccc1 [Compound 7],–,6.05 to 7.00,–,–
OC[C@@H](Nc1ncnc2sc(-c3ccccc3)c(Cl)c12)c1ccccc1 [Compound 8],–,6.05 to 7.00,–,–
"C=CC(=O)N1CCc2c(sc3ncnc(N[C@H](CO)c4ccccc4)c23)C1 [Compound 12, 1-[4-(2-hydroxy-1-phenyl-ethylamino)-5,8-dihydro-6H-9-thia-1,3,7-triaza-fluoren-7-yl]-propenone]",7.00 to 9.00,–,6.30 to 8.00,> 7.23
C=CC(=O)N1CCc2c(sc3ncnc(N[C@H](CO[Si](C)(C)C(C)(C)C)c4ccccc4)c23)C1 [Compound 15],6.00 to 6.52,6.05 to 7.00,–,–
O=C(O)[C@@H](Nc1ncnc2sc3c(c12)CCCC3)c1ccccc1 [Compound 18],–,6.05 to 7.00,–,–
O=C(O)[C@@H](Nc1ncnc2sc3c(c12)CCC3)c1ccccc1 [Compound 20],–,6.05 to 7.00,–,–
O=C(O)[C@@H](Nc1ncnc2sc(-c3ccccc3)cc12)c1ccccc1 [Compound 22],–,6.05 to 7.00,–,–
CC[C@@H](Nc1ncnc2sc3c(c12)CCCC3)c1ccccc1 [Compound 23],6.00 to 6.52,6.05 to 7.00,–,–
"OC[C@@H](Nc1ncnc2oc(-c3ccccc3)c(-c3ccccc3)c12)c1ccccc1 [Compound 31, S-2-(5,6-diphenyl-furo[2,3-d]pyrimidin-4-ylamino)-2-phenyl-ethanol]",6.00 to 6.52,6.05 to 7.00,–,–
COc1ccc(-c2c(-c3ccccc3)oc3ncnc(N[C@H](CO)c4ccccc4)c23)cc1 [Compound 35],6.52 to 7.00,6.05 to 7.00,–,–
COc1ccc(-c2oc3ncnc(N[C@H](CO)c4ccccc4)c3c2-c2ccc(OC)cc2)cc1 [Compound 36],–,–,–,7.00 to 7.22
CC(=O)Nc1ccc(-c2c(-c3ccccc3)oc3ncnc(N[C@H](CO)c4ccccc4)c23)cc1 [Compound 37],6.52 to 7.00,–,–,7.00 to 7.22
CC(=O)Nc1cccc(-c2c(-c3ccccc3)oc3ncnc(N[C@H](CO)c4ccccc4)c23)c1 [Compound 38],6.52 to 7.00,6.05 to 7.00,–,–
OC[C@@H](Nc1ncnc2oc(-c3ccccc3)c(-c3ccco3)c12)c1ccccc1 [Compound 40],6.00 to 6.52,6.05 to 7.00,–,–
OC[C@@H](Nc1ncnc2oc(-c3ccccc3)c(-c3ccoc3)c12)c1ccccc1 [Compound 41],6.52 to 7.00,6.05 to 7.00,–,–
CC(=O)OC[C@@H](Nc1ncnc2oc(-c3ccccc3)c(Br)c12)c1ccccc1 [Compound 44],6.00 to 6.52,–,–,–
OC[C@@H](Nc1ncnc2oc(-c3ccccc3)c(Cl)c12)c1ccccc1 [Compound 45],–,6.05 to 7.00,–,–
COC(=O)[C@@H](Nc1ncnc2oc(-c3ccccc3)c(-c3ccccc3)c12)c1ccccc1 [Compound 46],6.00 to 6.52,–,–,–

SMILES,pIC50 (HCC827 cells),pIC50 (GST-EGFR-KD^WT; range given in mixed units),pIC50 (GST-EGFR-KD^L858R/T790M),pIC50 (GST-EGFR-KD^WT)
CCOC(=O)[C@@H](Nc1ncnc2oc(-c3ccccc3)c(-c3ccccc3)c12)c1ccccc1 [Compound 47],6.00 to 6.52,–,–,–
O=C(O)[C@@H](Nc1ncnc2oc(-c3ccccc3)c(-c3ccccc3)c12)c1ccccc1 [Compound 50],–,–,–,> 7.23
O=C(O)[C@@H](Nc1ncnc2oc(-c3ccccc3)c(Br)c12)c1ccccc1 [Compound 53],–,–,–,> 7.23
CC[C@@H](Nc1ncnc2oc(-c3ccccc3)c(-c3ccccc3)c12)c1ccccc1 [Compound 54],6.00 to 6.52,–,–,–
CC[C@@H](Nc1ncnc2oc(-c3ccccc3)cc12)c1ccccc1 [Compound 56],6.00 to 6.52,–,–,–
O=C(O)/C=C\C(=O)N1CCc2c(sc3ncnc(N[C@H](CO)c4ccccc4)c23)C1 [Compound 61],–,6.05 to 7.00,–,–
C=CS(=O)(=O)N1CCc2c(sc3ncnc(N[C@H](CO)c4ccccc4)c23)C1 [Compound 63],6.52 to 7.00,–,5.60 to 6.30,7.00 to 7.22
C=CC(=O)N1CCc2c(sc3ncnc(N[C@H](C)c4ccccc4)c23)C1 [Compound 64],7.00 to 9.00,–,5.60 to 6.30,> 7.23
O=C(/C=C/CN1CCCCC1)N1CCc2c(sc3ncnc(N[C@H](CO)c4ccccc4)c23)C1 [Compound 65],7.00 to 9.00,–,5.60 to 6.30,> 7.23
CCOC(=O)/C=C/C(=O)N1CCc2c(sc3ncnc(N[C@H](CO)c4ccccc4)c23)C1 [Compound 68],7.00 to 9.00,–,–,–
"C=CC(=O)Nc1ccc(-c2c(-c3ccccc3)oc3ncnc(N[C@H](CO)c4ccccc4)c23)cc1 [Compound 118, S—N-{4-[4-(2-Hydroxy-1-phenyl-ethylamino)-6-phenyl-furo[2,3-d]pyrimidin-5-yl]-phenyl}-acrylamide]",6.00 to 6.52,–,–,7.00 to 7.22
C=CC(=O)Nc1ccc(-c2nc3c(N[C@H](CO)c4ccccc4)ncnc3o2)cc1 [Compound 154],–,6.05 to 7.00,–,–
CN(C)C/C=C/C(=O)N1CCc2c(sc3ncnc(N[C@H](CO[Si](C)(C)C(C)(C)C)c4ccccc4)c23)C1 [Compound 186],6.00 to 6.52,–,–,7.00 to 7.22
CN(C)C/C=C/C(=O)N1CCc2c(sc3ncnc(N[C@H](CO)Cc4ccccc4)c23)C1 [Compound 192],7.00 to 9.00,6.05 to 7.00,–,–
CN(C)C/C=C/C(=O)N1CCc2c(sc3ncnc(N[C@H](CCO)c4ccccc4)c23)C1 [Compound 194],7.00 to 9.00,–,–,> 7.23
CCN(CC)C/C=C/C(=O)N1CCc2c(sc3ncnc(N[C@H](CCO)c4ccccc4)c23)C1 [Compound 199],–,–,–,> 7.23
CC(C)NC/C=C/C(=O)N1CCc2c(sc3ncnc(N[C@H](C)c4ccccc4)c23)C1 [Compound 204],7.00 to 9.00,6.05 to 7.00,–,–
C[C@@H](Nc1ncnc2sc3c(c12)CCN(C(=O)/C=C/CNc1ccccc1)C3)c1ccccc1 [Compound 206],6.00 to 6.52,6.05 to 7.00,–,–
C[C@@H](Nc1ncnc2sc3c(c12)CCN(C(=O)/C=C/CN=[N+]=[N-])C3)c1ccccc1 [Compound 208],7.00 to 9.00,–,–,> 7.23
C[C@@H](Nc1ncnc2sc3c(c12)CCN(C(=O)/C=C/CN(C)C)C3)c1ccc(Br)cc1 [Compound 209],7.00 to 9.00,–,–,> 7.23
C[C@@H](Nc1ncnc2sc3c(c12)CCN(C(=O)/C=C/CNN1CCCCC1)C3)c1ccccc1 [Compound 212],7.00 to 9.00,–,–,> 7.23

SMILES,pIC50 (HCC827 cells),pIC50 (GST-EGFR-KD^WT; range given in mixed units),pIC50 (GST-EGFR-KD^L858R/T790M),pIC50 (GST-EGFR-KD^WT)
C[C@@H](Nc1ncnc2sc3c(c12)CCN(C(=O)/C=C/CN(C)CCO)C3)c1ccccc1 [Compound 213],7.00 to 9.00,–,–,> 7.23
CC(=O)OC/C=C/C(=O)N1CCc2c(sc3ncnc(N[C@H](C)c4ccccc4)c23)C1 [Compound 214],7.00 to 9.00,–,–,> 7.23
CCN(C/C=C/C(=O)N1CCc2c(sc3ncnc(N[C@H](C)c4ccccc4)c23)C1)CCO [Compound 216],7.00 to 9.00,–,–,> 7.23
CCC[C@@H](Nc1ncnc2sc3c(c12)CCN(C(=O)/C=C/CN(C)C)C3)c1ccccc1 [Compound 217],7.00 to 9.00,–,–,> 7.23
CN(C)C/C=C/C(=O)N1CCc2c(sc3ncnc(N[C@H](CCOCc4ccccc4F)c4ccccc4)c23)C1 [Compound 218],7.00 to 9.00,–,–,> 7.23
CN(C)C/C=C/C(=O)N1CCc2c(sc3ncnc(N[C@H](COCc4ccc(F)cc4)c4ccccc4)c23)C1 [Compound 219],7.00 to 9.00,–,–,> 7.23
C/C=C/C(=O)N1CCc2c(sc3ncnc(N[C@H](COCc4cccc(F)c4)c4ccccc4)c23)C1 [Compound 220],–,–,–,7.00 to 7.22
CN(C)C/C=C/C(=O)N1CCc2c(sc3ncnc(N[C@H](COCc4ccncc4)c4ccccc4)c23)C1 [Compound 224],7.00 to 9.00,–,–,> 7.23
COC[C@@H](Nc1ncnc2sc3c(c12)CCN(C(=O)/C=C/CN(C)C)C3)c1ccccc1 [Compound 229],7.00 to 9.00,–,–,> 7.23
CCN(CC)C/C=C/C(=O)N1CCc2c(sc3ncnc(N[C@H](COC)c4ccccc4)c23)C1 [Compound 230],7.00 to 9.00,–,–,7.00 to 7.22
CN(C)C/C=C/C(=O)N1CCc2c(sc3ncnc(N[C@H](COCc4cccnc4)c4ccccc4)c23)C1 [Compound 231],7.00 to 9.00,–,–,> 7.23
C=CC(=O)Nc1ccc(-c2c(-c3ccccc3)oc3ncnc(N[C@H](C)c4ccccc4)c23)cc1 [Compound 238],7.00 to 9.00,6.05 to 7.00,–,–
C=CC(=O)Nc1cccc(-c2c(-c3ccccc3)oc3ncnc(N[C@H](COC(=O)C=C)c4ccccc4)c23)c1 [Compound 240],–,6.05 to 7.00,6.30 to 8.00,–
CC#CC(=O)Nc1cccc(-c2c(-c3ccccc3)oc3ncnc(N[C@H](COC)c4ccccc4)c23)c1 [Compound 242],–,6.05 to 7.00,–,–
C=CC(=O)Nc1cccc(-c2coc3ncnc(N[C@H](CO)c4ccccc4)c23)c1 [Compound 244],6.00 to 6.52,–,–,7.00 to 7.22
C=CC(=O)Nc1cccc(-c2cc3c(N[C@H](CO)c4ccccc4)ncnc3s2)c1 [Compound 245],6.52 to 7.00,–,–,> 7.23
C=CC(=O)Nc1cccc(-c2csc3ncnc(N[C@H](CO)c4ccccc4)c23)c1 [Compound 246],7.00 to 9.00,–,–,> 7.23
C=CC(=O)Nc1cccc(-c2c(-c3ccccc3)oc3ncnc(N(C)C(COC)c4ccccc4)c23)c1 (stereo not drawn) [Compound 247],–,6.05 to 7.00,–,–
COCCN(C)C/C=C/C(=O)N1CCc2c(sc3ncnc(N[C@H](CO)c4ccccc4)c23)C1 [Compound 327],–,–,–,> 7.23

# From US8507502B2, “Fused bicyclic and tricyclic pyrimidine compounds as tyrosine kinase inhibitors” (National Health Research Institutes, priority 2008, dated 2013)
